Assay results taken from patent US20220030882A1, “Composition and Method to Remove Parasites From Fish and to Prevent or Treat Infestation or Infection of Parasites on Fish” (priority 2018, published 2022).

Experiments:
[1] = tested on: salmon lice; set-up: species or system Lepeophteirus salmonis; conditions: in vivo
[2] = cited from earlier work

In the case of `COc1cc(CNC(=O)CCCC/C=C/C(C)C)ccc1O` [capsaicin], the “effect on the lice” value [1] is listed as “has an effect”, the “sum of the effects on lice of each agent on its own versus the combination of capsaicin and acetic acid” value [1] is listed as “considerably lower” and the “solubility in ethanol and other hydrophobic solvents” value ([2]; pure capsaicin) is listed as “soluble”. For the same compound, the solubility in water ([2]; water) was “not soluble”.
